The assay addresses T1, HMG-CoA reductase (Rattus norvegicus, UniProt P51639).
T1 construct: the male rat liver was removed and rinsed with KESD buffer; from tissue; host or cells: male rat liver microsomes
T1 sequence (P51639 1-887): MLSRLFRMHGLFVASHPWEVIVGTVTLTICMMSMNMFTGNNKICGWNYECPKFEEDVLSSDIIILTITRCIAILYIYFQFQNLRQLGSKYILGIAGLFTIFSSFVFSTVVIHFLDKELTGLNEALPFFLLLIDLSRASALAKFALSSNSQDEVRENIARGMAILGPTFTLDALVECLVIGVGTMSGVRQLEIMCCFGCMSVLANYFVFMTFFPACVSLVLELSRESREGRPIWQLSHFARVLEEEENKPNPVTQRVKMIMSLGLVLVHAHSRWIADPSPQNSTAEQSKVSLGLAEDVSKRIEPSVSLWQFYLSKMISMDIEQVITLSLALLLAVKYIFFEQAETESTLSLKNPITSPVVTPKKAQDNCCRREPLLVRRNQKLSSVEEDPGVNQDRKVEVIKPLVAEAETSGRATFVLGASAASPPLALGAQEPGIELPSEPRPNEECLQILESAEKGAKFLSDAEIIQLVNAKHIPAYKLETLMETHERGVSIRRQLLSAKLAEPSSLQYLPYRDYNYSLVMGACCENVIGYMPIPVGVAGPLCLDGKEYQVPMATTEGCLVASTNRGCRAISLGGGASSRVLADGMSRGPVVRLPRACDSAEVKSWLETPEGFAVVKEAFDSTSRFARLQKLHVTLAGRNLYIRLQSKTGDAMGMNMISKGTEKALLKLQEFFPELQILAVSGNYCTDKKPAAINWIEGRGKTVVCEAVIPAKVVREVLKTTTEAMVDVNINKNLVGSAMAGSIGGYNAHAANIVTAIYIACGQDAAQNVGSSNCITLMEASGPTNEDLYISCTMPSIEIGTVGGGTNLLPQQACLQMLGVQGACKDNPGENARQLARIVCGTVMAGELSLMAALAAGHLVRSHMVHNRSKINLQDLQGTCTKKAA
Nature of the assay: Assay on HMG-CoA reductase-inhibiting activity (decreasing rate of OD340). Particulars: for Inhibition rate (%): rat liver microsomes, 37° C., pH 6.8; for Slope (decreasing rate of OD340 within 5 min): blank control slope 13.5. In kind it is biochemical. Here is the method: Rat liver microsomes (HMG-CoA reductase) were commercially purchased, or were prepared by reference to the following method: the male rat liver was removed and rinsed with KESD buffer, and then centrifuged at 12,000 g for 15 min. The supernatant was taken. After centrifugation at 105,000 g for 90 min twice, the centrifuged pellets resulted from centrifugation were collected. To the centrifuged pellets, 8.3% glycerol was added, and the resultant mixture was heated in a 37° C. warm bath for 1 h. The crude product of the rat liver microsomes was purified with saturated ammonium sulfate, and the 35-50% purified fraction was collected. The rat liver microsomes obtained were stored in −80° C. refrigerator.
Compound 5 was dissolved in 75% ethanol solution, at an initial concentration of 8.6 mg/ml, and was subjected to stepwise dilution to obtain 4.3 mg/ml, 2.15 mg/ml. The total volume of the test system was 250 μl, and the concentrations of various ingredients were as follows: 200 mM potassium chloride, 160 mM potassium dihydrogen phosphate, 4 mM ethylenediamine tetra acetic acid, 10 mM dithiothreitol, and the concentrations for the two substrates […] and 3-hydroxy-3-methylglutaryl-coenzyme A were 200 μM and 50 μM, pH 6.8, respectively, wherein 30 μl was added for enzyme, 5 μl was added for the test group, and 5 μl (solvent for dissolving the sample) was added for the control group. The dynamic change in OD340 was determined at 37° C. by Versamax ELISA Microplate Reader. The decreasing rate of OD340 (represented by slope) was measured within 5 min, to evaluate the HMG-CoA reductase activity, and to further evaluate the enzyme-inhibiting activity.
For orientation: Microsomes from liver hold many membrane-bound enzymes, among them those of drug oxidation.

For `COC(=O)CC(O)CC(O)CCC1c2ccc(C)cc2C=CC1C` (stereo not drawn) [Compound 5, methyl 7-(2,6-dimethyl-1,2-dihydronaphthalen-1-yl)-3,5-dihydroxyheptanoate], the “HMG-CoA reductase inhibition, result in words” value (43-172 μg/ml, dose-response relationship) is “inhibited the HMG-CoA reductase activity, and exhibited a dose-response relationship”. Further, the “Inhibition rate (%)” value is recorded as 19.2% (final concentration 43 μg/ml (inhibitor 2.15 mg/ml, 5 μl)); 33.3% (final concentration 86 μg/ml (inhibitor 4.3 mg/ml, 5 μl)); 42.2% (final concentration 172 μg/ml (inhibitor 8.6 mg/ml, 5 μl)). Also, the “Slope (decreasing rate of OD340 within 5 min)” value is, setting by setting: (final concentration 43 μg/ml) 10.9; (final concentration 86 μg/ml) 9.0; (final concentration 172 μg/ml) 7.8.

As for `CC[C@H](C)C(=O)O[C@H]1C[C@@H](C)C=C2C=C[C@H](C)[C@H](CC[C@@H]3C[C@@H](O)CC(=O)O3)[C@H]21` [lovastatin, reference compound], the “Inhibition rate (%)” value (final concentration 80 μg/ml (inhibitor 4.0 mg/ml, 5 μl)) was found to be 39.2%. In addition, the “Slope (decreasing rate of OD340 within 5 min)” value (final concentration 80 μg/ml) is on record as 8.2.

Values taken from patent US10099998B2, “Compound, and separation method, synthesis method and use thereof” (BEIJING PEKING UNIVERSITY WBL BIOTECH CO., LTD., priority 2015, dated 2018).
